The subject of assay [1] is colonic adenomas. Nature of the assay: In vivo NIR imaging of Cy5.5-labeled AKP peptides. Further details: species or system CPC;Apc mice. The conditions noted are these: for T/B ratio: 100 μM, 1.5 mL topical, 5 min; for detection of lesions by size: adenomas ˜0.5 to 4 mm. The protocol:
The binding activity of the synthetic peptides to colonic dysplasia was assessed in vivo in 3 cohorts of CPC;Apc mice: 1) AKP-multimer, n=14 mice with n=33 adenomas, 2) AKP-monomer, n=14 mice with n=27 adenomas, and 3) trilysine core, n=8 mice with n=17 adenomas as a control. For the imaging studies, anesthesia was induced and maintained in the animals with inhaled isoflurane mixed with oxygen via a nose cone at a dose of 4% and 2% at a flow rate of 0.5 liter/min, respectively. Prior to applying the peptides, the colon was prepped using a tap water lavage. The adenomas were viewed endoscopically, and videos were recorded using white light with a small animal endoscope (Karl Storz Veterinary Endoscopy, Goleta, Calif.). The colon was rinsed with water until all mucous and other debris was removed. Adenomas from approximately 0.5-4 mm in diameter that were not covered in debris, including stool and mucous, were included in the study.
The Cy5.5-labeled peptides were delivered at a concentration of 100 μM in PBS containing 2.5% DMSO (dimethyl sulfoxide) through the instrument channel of the endoscope. During peptide administration, 1.5 mL of peptide was delivered to the distal colon in each mouse. The peptide was allowed to incubate for 5 min after which the colon was cleansed 3× with a tap water to remove the unbound peptide. Prior to imaging, the colon was inspected for residual peptide solution, and when clean, the colon was insufflated with air and imaged with the wide field endoscope which provides excitation at 671 nm. Fluorescence and reflectance videos were collected using Axiovision 4.8.1 software. Fluorescence videos were collected at 100 ms/frame (10 Hz), and transferred to the computer for storage by a firewire connection. A filter wheel was incorporated into the handle of the housing to quickly switch between collection of reflectance and fluorescence images. White light, fluorescence and reflectance images were collected from 1) n=14 mice having n=33 adenomas with AKP-multimer, 2) n=14 mice having n=27 adenomas with AKP-monomer, and 3) n=8 mice having n=17 adenomas with the trilysine (control). The CPC;Apc mice imaged ranged in age from 3 to 6 months. Fluorescence images were exported as videos in zvi format (16 bit digital resolution) using LabView software. Sequentially-collected white light and fluorescence images for each adenoma were analyzed. Separate regions of interest (ROI) were defined around the adenoma and adjacent normal-appearing mucosa on the white light image, and the ROI's were overlayed onto the fluorescence images. The target to-background (T/B) ratio was determined by ratioing the mean intensities from these 2 ROI's.

Assay [2] deals with CCD-841Con cells. Nature of the assay: Flow cytometry of FITC-labeled AKP peptides. The assay is classed as cell-based, human. The settings on record: 10 μM, 60 min, 4° C. The source says: (§1) Peptides labeled with 5-FITC were used for the validation assays of cell binding. Preferential binding of the multimer peptide, monomer peptide, and trilysine to different human colorectal cancer (SW480, and HT29) and control cells (CCD841-Con) was validated on flow cytometry. A total of 5×10^5 cells were used with each probe. The confluent cells were detached using enzyme free cell dissociation buffer (Invitrogen, Carlsbad, Calif.) or trypsin with 0.25% EDTA (Mediatech Inc, Manassa, Va.) and immersed in blocking buffer, PBS with 1% bovine serum albumin (BSA), for 30 min at 4° C. with continuous agitation. After blocking, cells were washed with 1×PBS and spun down for 5 min at 1000 rpm. Then cells were incubated with the 5-FITC labeled peptides and trilysine (10 μM) for 60 min at 4° C. with continuous agitation. The cells were then washed 3× with cold PBST followed by immediate fixation for 10 min with 4% paraformaldehyde. The cells were washed again (1×) with PBS and resuspended in 1 mL of PBS. Flow cytometry was performed using FACSDiVa (BD® LSRII, BD Biosciences, San Jose, Calif.) and analyzed using Flowjo analysis program (Tree Star Inc, Ashland, Oreg.). The gain was kept constant for all experiments.

Assay [3] deals with HT29 cells. Briefly: Flow cytometry of FITC-labeled AKP peptides. The assay is classed as cell-based, human.
Description: as §1

The test system of assay [4] is SW480 cells. Nature of the assay: Flow cytometry of FITC-labeled AKP peptides. The settings on record: 10 μM, 60 min, 4° C. The assay is classed as cell-based, human.
Description: as §1
In general terms: Flow cytometry measures light scatter and fluorescence of single cells or particles in a stream.

The test system of assay [5] is CCD-841Con cells. Nature of the assay: Fluorescence microscopy of FITC-labeled AKP peptides. The assay is classed as cell-based, human. The conditions noted are these: 10 μM, 4° C., 1 hr. The method, then: (§2) Preferential binding of the FITC-labeled peptides to the target and non-target cells as mentioned above was further validated via fluorescence microscopy. Cells (˜7.5×10^3) were seeded on cover slips to ˜80% confluence. The cells were then incubated with 10 μM of 5-FITC-labeled peptides and trilysine at 4° C. for 1 hr followed by staining with 1 μg/mL Hoechst dye (Sigma Aldrich, St. Louis, Mo.). The cells were washed 3× with PBS and fixed with 4% paraformaldehyde at RT for 10 min. After fixation, the cells were washed again with PBS (1×) and mounted with ProLong Gold reagent (Invitrogen, Carlsbad, Calif.) and fluorescence images were collected with confocal microscopy (Leica TCS SP5 Microsystems, Bannockburn, Ill.). The specific peptide binding activity of the FITC-labeled AKP-multimer and AKP-monomer peptides was compared.

The subject of assay [6] is HT29 cells. The description is as above. The assay is classed as cell-based, human. The method, then:
as §2

Assay [7] has as its system SW480 cells. Described as above. The conditions noted are these: 10 μM, 4° C., 1 hr. The assay is classed as cell-based, human. The method, then:
as §2

The subject of assay [8] is HT29 cells. Briefly: Measurement of binding affinity by flow cytometry. Further details: species or system human. The conditions noted are these: FITC-labeled, 0 to 10 μM, 4° C., 1 hr. The protocol:
(§3) The binding affinity of multimer and monomer peptide was measured by varying the concentration of the 5-FITC-labeled peptides and trilysine incubated with the target cells (1×10^5) until saturation of fluorscence intensity was achieved. The FITC-labeled peptide was serially diluted in PBS at concentrations that varied from 0 to 10 μM and incubated with the target cells at 4° C. for 1 hr. The unbound peptide was rinsed off the cells by washing 3× with cold PBS/0.2% Tween-20 solution. The cells were fixed with 4% PFA, as mentioned above, washed 1× with PBS, and resuspended in 1 mL of PBS. Cells were transferred to a 5 mL tube and subjected to flow-cytometric analysis. The median fluorescence intensity from each concentration of peptides was used to calculate the affinity constant. The equilibrium dissociation constants (Kd=1/Ka) of the peptide-cell interaction were obtained by fitting the data to the non-linear equation I[X]=(I0+ImaxKa[X])/(I0+Ka[X]). I0 and Imax are the initial and maximum fluorescence intensities, corresponding to no peptide and at saturation, respectively, and [X] represents the concentration of the bound peptide. Origin 6.1 data analysis software (Origin Lab Corp, Northampton, Mass.) was used to perform a non-linear least square fit of the data.

The subject of another assay is SW480 cell line. Briefly: Measurement of binding affinity by flow cytometry. Also on record: species or system human. The settings on record: FITC-labeled, 0 to 10 μM, 4° C., 1 hr. The method, then: as §3
Assay [9] has as its system HT29 cells. Nature of the assay: Kinetic measurements by flow cytometry. The assay is classed as binding, human. The conditions noted are these: for rate constant K: 10 μM, 4° C., 0-60 min, first order fit. The method, then:
The binding kinetics for AKP-monomer and AKP-multimer peptide was further evaluated on the target cells in the presence of 10 μM peptide concentration. The target cells (5×10^5) were detached and blocked as mentioned earlier and incubated with both monomer and multimer peptides at 4° C. over time from 0-60 min. After completing the incubation for each time course, the samples were prepared for flow cytometry, as mentioned above. The kinetics of peptide binding with the cell surface was determined by measuring the shift in the intensity of FITC-channel as a function of time. The resulting data were converted to median values as a function of time, and the rate constant was calculated using first order rate kinetics Y=a−b*exp^(−kx); where a=maximum value, b=difference in intensity (I−I0), and K=rate constant. Curve fits were performed using Origin 6.1 data analysis software.

Assay [10] concerns colonic adenomas. Briefly: In vivo small animal fluorescence endoscopy with FITC-labeled peptides. Further details: species or system CPC;Apc mice. The conditions noted are these: topical, 5 min incubation, mean±SD. The method, then: Prior to peptide administration, the colon was prepped using a tap water lavage. Using a small animal endoscope (Karl Storz Veterinary Endoscopy, Goleta, Calif.) with an instrument channel for performing biopsy, polyps suitable for peptide administration were located and the colon was rinsed with water until all mucous was removed. FITC-labeled Peptide 1 and Control peptide 1 were delivered in 1×PBS through the instrument channel. The peptides were allowed to incubate for 5 minutes after which the colon was cleansed 3× with a tap water to remove the unbound peptide. […] Fluorescence excitation produced with a 450-475 nm passband filter that can be manually switched to the optical path of a 175 W Nova Xenon light source was delivered to the endoscope via a 3 mm diameter fluid light cable (250 cm length). Fluorescence images were collected with a 510 nm long-pass barrier filter to block the excitation light and detected with a 3-chip color camera with an integrated parfocal zoom lens. Real time video was recorded via firewire connected to a personal computer. Polyps in CPC;Apc mice developing distal colonic adenomas (Peptide 1, n=6 mice, n=18 polyps; Control peptide 1, n=4 mice, n=7 polyps) in addition to Cre recombinase negative littermate controls (Peptide 1, n=2 mice) and Hyperplastic Kras mice (Peptide 1, n=3 mice) were imaged using both white light and fluorescence endoscopy. […]

For assay [11], the system named is dysplastic crypts of excised polyps. Nature of the assay: Confocal fluorescence imaging of ex vivo binding. Further details: species or system CPC;Apc mice. The settings on record: ex vivo incubated polyps. The method, then:
Preferential binding of the Peptide 1 compared to the Control peptide 1 on the adenomatous polyps was again confirmed with confocal microscopy. After peptide incubation, excised polyps were incubated ex vivo in 1 μg/mL Hoechst dye for 5 min to stain living nuclei, rinsed 3× with 1×PBS and imaged on an Olympus Confocal Microscope (Olympus, Tokyo, Japan).

Assay [12] relates to isolated colonic epithelial cells from adenomas. Nature of the assay: Flow cytometry of FITC-conjugated phage clones. The assay is classed as cell-based, CPC;Apc mice. The source says:
Specific binding of the candidate peptides to primary dysplastic colonic epithelial cells were validated on flow cytometry ex vivo and with small animal endoscopy in vivo using FITC-labeled peptides using a non-scanning white light endoscope.
Phages that bound to colonic adenomas approximately 10 times greater in number than to normal appearing colonic mucosa were chosen. As a result, 42 individual phage clones were sequenced from the third round of biopanning, and were individually amplified and conjugated to 5′-FITC. Binding to isolated colonic epithelial cells from adenomas for each phage clone was analyzed using flow cytometry. A common 7-mer phage that expresses the sequence HAIYPRH (SEQ ID NO: 29) is a known contaminant, and was run (labeled # in Supplementary FIG. 1B) to ensure the validity of the assay. […] Six phage clones with a T/B ratio (target to wild-type phage)>1.9 were identified as ALTPTPP (SEQ ID NO: 30), NLVNLLP (SEQ ID NO: 31), ANYPREP (SEQ ID NO: 32), ATTVPAS (SEQ ID NO: 33), LTTHYKL (SEQ ID NO: 26), and AKPGYLS (SEQ ID NO: 25). The KCCFPAQ (SEQ ID NO: 2) peptide had been previously found to bind to human HT29 cells.

[13] abbreviates: cell line not specified (SW480, HT29, CCD-841Con tested).

Where no end group is shown, it is not given here.

In the case of “AKP-multimer: tetrameric version of AKPGYLS anchored on a trilysine core; Cy5.5 label in vivo, FITC label in vitro (also: tetramer on trilysine core, Cy5.5 or FITC label)”, the “NIR fluorescence signal from adenomas” value in the assay with colonic adenomas [1] (Cy5.5-labeled) is “significantly amplified”. For the same substance, the “average fluorescence intensity from colonic adenomas relative to AKP-monomer and trilysine control” value with colonic adenomas [1] (Cy5.5-labeled) is on record as about 1.8 fold. For the same substance, the T/B ratio with colonic adenomas [1] (Cy5.5-labeled) is reported as 3.84±0.26. For the same substance, the “detection of lesions by size” value in the assay with colonic adenomas [1] is given as “detected all lesions regardless of size”. Moreover, the “counts relative to unstained cells” value in the assay with CCD-841Con cells [2] was found to be 2.2 times; with HT29 cells [3] (HT29, FITC-labeled, 10 μM, 60 min, 4° C.) it was 26.1 times; in the assay on SW480 cells [4], 20.2 times. Besides, the “binding to plasma membrane” value in the assay with CCD-841Con cells [5] is recorded as “not to CCD-841Con cells”; in the assay with HT29 cells [6] (HT29, FITC-labeled, 10 μM, 4° C., 1 hr), “bound specifically to the plasma membrane”; in the assay on SW480 cells [7], “bound specifically to the plasma membrane”. Besides, the Kd (in general, a measure of binding affinity in units of concentration) with HT29 cells [8] turned out to be 6.4 nM; in the assay with SW480 cell line, 101 nM. In addition, in the assay with HT29 cells [9], the “binding speed relative to AKP-monomer” value is about 2 fold. The “rate constant K” value with HT29 cells [9] and in the assay on HT29 cells [9] (listed as multimer) was 0.1136 min⁻¹ throughout.

With “AKPGYLSGGGSK-NH2 [AKP-monomer, Cy5.5 label in vivo, FITC label in vitro]”, in the assay with colonic adenomas [1] (Cy5.5-labeled), the “NIR fluorescence signal from adenomas” value is on record as “faint fluorescence intensity” and the T/B ratio is reported as 2.21±0.13. Besides, the “detection of lesions by size” value in the assay on colonic adenomas [1] is on record as “did not visualize lesions smaller than ˜1 mm”. Also, the “extent of cell binding on flow cytometry” value in the assay with HT29 cells [3] (setting [13]) is recorded as “bound to a lower extent than the AKP-multimer”. The “cell staining on microscopy” value in the assay on HT29 cells [6] (setting [13]) is listed as “lower fluorescence intensity at the cell surface”. Moreover, binding in the assay with HT29 cells [8] was characterised by a dissociation constant (Kd) of 310 nM. The substance also displayed a Kd with SW480 cell line of 1210 nM. In the assay on HT29 cells [9], the “rate constant K” value worked out at 0.0663 min⁻¹.

On to “GGGAGGGA [FITC-Control peptide 1, control peptide containing Gly and Ala, FITC-labeled]”, for which the “T/B (polyp/normal colon, target to background ratio)” value with colonic adenomas [10] amounted to 1.14±0.15. Besides, the “binding to dysplastic crypts, confocal microscopy” value in assay [11] is reported as “Minimal to no binding”.

HAIYPRH: the “T/B ratio (target to wild-type phage)” value in [12] was 1.10±0.08.

For the origin of these results see patent US8901276B2, “Peptide reagents and methods for detection of colon dysplasia” (The Regents of the University of Michigan, priority 2010, dated 2014).
